Reference: ChEMBL document CHEMBL4145592, “Synthesis of Phosphatidylserine and Its Stereoisomers: Their Role in Activation of Blood Coagulation” (ACS Med Chem Lett, 2018)
Calls of active or inactive are those of the source. The calls are words filed in the database; no cut-off is given here.

How the values were obtained:
[1] = target: T1, Coagulation factor VII/tissue factor (Homo sapiens) (UniProt P08709+P13726); test: (§1) Activation of full length recombinant human His-tagged tissue factor expressed in Escherichia coli BL21(DE3)/recombinant factor 7a (unknown origin) assessed as induction of coagulant factor-10a production using S-2765 as substrate measured for 2 mins in presence of phosphatidylcholine by colorimetric method
[2] = target: T1, Coagulation factor VII/tissue factor (Homo sapiens); test: as §1, with “method relative to phosphatidylcholine alone” for “method”

For `CCCCCCCC/C=C\CCCCCCCC(=O)OC[C@H](COP(=O)(O)OC[C@@H](N)C(=O)O)OC(=O)CCCCCCC/C=C\CCCCCCCC`, the Activity [1] was “Active”.
In the case of `CCCCCCCC/C=C\CCCCCCCC(=O)OC[C@H](COP(=O)(O)OC[C@H](N)C(=O)O)OC(=O)CCCCCCC/C=C\CCCCCCCC`, the fold change (FC) [2] is reported as 6.
`CCCCCCCC/C=C\CCCCCCCC(=O)OC[C@@H](COP(=O)(O)OC[C@H](N)C(=O)O)OC(=O)CCCCCCC/C=C\CCCCCCCC` showed a fold change (FC) [2] of 2.
In the case of `CCCCCCCC/C=C\CCCCCCCC(=O)OC[C@@H](COP(=O)(O)OC[C@@H](N)C(=O)O)OC(=O)CCCCCCC/C=C\CCCCCCCC`, the Activity [1] is reported as “inactive”.
